What is called pKd is −log10 of the Kd, conventionally taken in molar units.

The record followed here is patent publication US9242985B2, “Structural mimetics of proline-rich peptides and use thereof” (priority 2011, dated 2016).

pKd: −log10 of the molar value. No end group written: not given here.

Format in all cases: binding
Assay [1] has as its target T1, EVH1 domain (VASP-EVH1) (Homo sapiens, UniProt P50552). The assay is described as follows: Bonding affinity to EVH1 domain by isothermal calorimetry (ITC). An excerpt:
(§1) With the aid of the synthetic compound 85, by way of an example, the ligand peptides were synthetized with partially or completely substituted proline sequences and then examined for their interaction with the EVH1 domain (p=component 85). It was found therein that, due to the insertion of the mimetic 85, it was possible to increase the bonding affinity of the ligand peptides relative to the domain.
(§2) This is summarized in Table 1 below, which lists the bonding affinities of the ligand peptides as well as of the underlying native peptide ligands.
(§3) The bonding affinities were determined by means of fluorescence titration and isothermal calorimetry (p=component 85, wherein x denotes the already known PPII-mimetic amino acid according to structure 86 (presently as Fmoc-protected amino acid); and “2-Cl—F” stands for 2-Cl-phenylalanine).
Background: Isothermal titration calorimetry measures the heat released or taken up as one component is titrated into another.

Assay [2] addresses T1, EVH1 domain (VASP-EVH1). The assay is described as follows: Bonding affinity to EVH1 domain by fluorescence titration.
Description: as §1, §2, §3

For a further assay, the target named is VASP-EVH1 (Homo sapiens, UniProt P50552). The assay is described as follows: Further experiments: bonding affinity of ligand peptides to the domain (method not given). The text has this:
In addition, the observed increase in affinity with the compounds according to the invention allows for the first time ever to forego using natural amino acids completely, while still preserving the ability to bind to the EVH1 domains: […]

The next assay has as its target VASP-EVH1 domain (Homo sapiens, UniProt P50552).

T1 sequence (P50552 2-113): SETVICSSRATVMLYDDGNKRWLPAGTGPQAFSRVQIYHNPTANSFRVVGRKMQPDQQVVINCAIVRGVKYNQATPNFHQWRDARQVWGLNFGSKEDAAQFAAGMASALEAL
Chain of VASP-EVH1 (P50552 2-113 limits assumed): as the sequence (P50552 2-113) above
Chain of VASP-EVH1 domain (P50552 2-113): as above
Description for VASP-EVH1 domain: In addition, based on a number of different test ligand peptides, it was possible to gain an overview of the bonding affinities.

In the case of `CC(=O)N[C@@H](CO)C(=O)N[C@@H](Cc1ccccc1)C(=O)N[C@@H](CCC(=O)O)C(=O)N[C@@H](Cc1ccccc1Cl)C(=O)N1CCC[C@H]1C(=O)N1CCC[C@H]1C(=O)N1CCC[C@H]1C(=O)N1CCC[C@H]1C(=O)N[C@H](C(=O)N[C@@H](CCC(=O)O)C(=O)N[C@@H](CC(=O)O)C(=O)N[C@@H](CCC(=O)O)C(=O)N[C@@H](CC(C)C)C(N)=O)[C@@H](C)O`, the pKd on EVH1 domain (VASP-EVH1) [1] is 5.70; on EVH1 domain (VASP-EVH1) [2], 5.30. Regarding Ac-FPPPP [Ac-(SEQ ID NO: 4)-OH], the pKd at VASP-EVH1 is < 3.30. As to FPPPPT [FPPPPT], on VASP-EVH1 domain, the “bonding affinity KD” value is listed as “no measurable affinity”.
